In patent US20150052630A1, “Methods and Compositions for Obtaining Useful Plant Traits” (Board of Regents of the University of Nebraska, priority 2013, published 2015):
“Also recorded” adds a separate entry of the source.

System: Arabidopsis seedlings (wild type Col-0, epi-line, Col-0/msh1 graft progeny)
Experiment: 5-Azacytidine treatment and root length assay (methylation inhibition assay)
Format: in vivo
Conditions: 50 μM 5-azacytidine, half-strength MS plates, seedlings transferred 3 days post-germination, root lengths measured at ten days
From the text: FIG. 27A-C. a, Distribution of msh1 SNPs and indels versus Col-0 across the genome. Each dot represents the number of SNPs and indels found in a window of 50 kbp. Note that the Y-axis has been synchronized with the maximum number found on chr4 to enable comparisons between chromosomes. The region 7,800,000-9,850,0000 bp on chr4, a likely introgressed segment from Ler, contains 8582 of the total 12,771 SNPs and indels. […] Paired-end genome-wide sequencing, alignment and de novo partial assembly of the chm1-1 genome produced 14,416 contigs (n50=40,761 bp) containing 118.5 Mbp; mapping these contigs against Col-0 covers 72 Mbp. Alignment of paired-end reads to the Col-0 public reference sequence produced 95% alignment and identified 12,771 SNPs and indels, with the one 2-Mbp interval, on chromosome 4, accounting for 8,582 and the second on Chromosome 3 accounting for 2200. […]
Treatment with azacytidine can be used to nullify methylation effects^42. […] Ten days after moving to growth chamber, plates were scanned and root lengths were measured using ImageJ. […]

Nc1ncn([C@@H]2O[C@H](CO)[C@@H](O)[C@H]2O)c(=O)n1 [5-azacytidine]
effect on enhanced epi-line root length: restoration of epi-F3 seedlings to wild type growth levels; also recorded: abolished
